Assay results as given in patent US12710366B2, “Dyes undergoing changes in color and fluorescence upon binding of organic oxo compounds” (Bundesrepublik Deutschland, vertreten durch den …, priority 2020, dated 2026).
Several values for one entry are separate records, joined by “and”; a condition that tells them apart may be missing. Identical values can stand only once. Entries after “also recorded” stand apart in the source; their conditions may differ.

Tests used:
[1] = Solubility in polar solvents; format: physicochemical; details: polar organic solvents and solvent/water mixtures
[2] = UV/vis absorption and emission spectra (Stokes shift); format: physicochemical
Method: (§1) Absorption spectra and spectrophotometric titrations were acquired with a Specord 210 Plus spectrometer (Analytik Jena), using dilute solutions with an absorbance of about 0.1 at the absorption maximum. The binding constants were assessed with BindFit v0.5 software. Fluorescence spectra and titrations were carried out on a FluoroMax 4 spectrofluorometer (Horiba Jobin-Yvon).
Normalized UV/vis absorption and emission (λex=465 nm) spectra at a fixed concentration of thiourea-based compound 19 were recorded in CHCl3, toluene, acetonitrile (MeCN) and methanol (MeOH), yielding Stokes shifts between 160 nm and 230 nm, respectively. This positive solvatochromism is ascribed to the effective intramolecular charge transfer from the two electron-donating groups (thiourea and tertiary amine) to the electron-accepting benzodiazole as the solvent polarity increases (FIG. 1-4). […]
Normalized UV/vis absorption and emission spectra of guanidinium-based compound 25 at a fixed concentration were recorded in CHCl3 and MeCN. Sizable Stokes shifts of 180 nm and 210 nm were observed (FIGS. 8 and 9) as a result of the effective intramolecular charge transfer process established from the two electron-donating groups (guanidinium and tertiary amine) to the electron-accepting benzodiazole in solvents of different polarity.

[3] = Spectroscopic titration of compound 25 with TBA-OAc; format: binding; details: for change of UV/vis absorption band upon titration with TBA-OAc / change of fluorescence emission upon titration with TBA-OAc: c[25]=9×10^−6 M
Method: as §1
The bathochromic shift of the absorption band upon binding can be rationalized considering that the donor-acceptor interaction between the guanidinium and the benzoxadiazole is reinforced by a charge donation of the electron-rich acetate anion to the guanidinium.

[4] = Spectroscopic titration of compound 19 with ENOX-TBA in MeCN; format: binding
Method: as §1
This example illustrates the titration of the thiourea-based compound 19 with the ammonium salt of the antibiotic enoxacin (ENOX-TBA) in MeCN. […] The bathochromic shift of the absorption band upon binding can be rationalized considering that the donor-acceptor interaction between the thiourea and benzoxadiazole is reinforced with the charge donation of the electron-rich carboxylate anion to the thiourea through such supramolecular interactions. […] The estimated binding constant for this interaction was calculated to be K19/ENOX-TBA=[…] in MeCN.

SMILES: C=C(C)C(=O)OCCN(C)c1ccc(NC(=N)NC(=O)c2ccccc2)c2nonc12 [Compound 23, 2-((7-(3-benzoylguanidino)benzo[c][1,2,5]oxadiazol-4-yl)(methyl)amino)ethyl methacrylate]
- solubility [1]: soluble in polar organic solvents and polar organic solvent/water mixtures

SMILES: C=C(C)C(=O)OCCN(C)c1ccc(NC(=N)NC(=O)c2ccccc2)c2nonc12.Cl [Compound 25, benzamido((7-((2-(methacrycrykoyloxy)ethyl)(methyl)amino)benzo[c][1,2,5]oxadiazol-4-yl)amino)methaniminium chloride]
- absorption band position ([2]; CHCl3 and MeCN): 450 nm
- Stokes shift ([2]; in acetonitrile (MeCN)): 210 nm and > 210 nm
- Stokes shift ([2]; in chloroform (CHCl3)): 180 nm and > 180 nm
- change of UV/vis absorption band upon titration with TBA-OAc ([3]; CHCl3): decrease and a red shift
- change of fluorescence emission upon titration with TBA-OAc ([3]; CHCl3): red shift and decrease; also recorded: quenching and a red shift; also recorded: decrease and red shift
- change of UV/vis absorption band upon titration with TBA-OAc ([3]; MeCN): decrease and a red shift
- change of fluorescence emission upon titration with TBA-OAc ([3]; MeCN): red shift and decrease; also recorded: quenching and a red shift; also recorded: decrease and red shift
- interaction with oxoanions (e.g. TBA-OAc) ([3]; non-polar and polar solvents): can interact

SMILES: C=C(C)C(=O)OCCN(C)c1ccc(NC(=S)NC(=O)c2ccccc2)c2nonc12 [Compound 19]
- absorption band position ([2]; in MeCN): 462 nm
- Stokes shift ([2]; in acetonitrile (MeCN)): > 180 nm
- Stokes shift ([2]; in chloroform (CHCl3)): > 170 nm
- Stokes shift ([2]; in methanol (MeOH)): > 230 nm
- Stokes shift ([2]; in toluene): > 160 nm
- interaction with oxoanions (e.g. ENOX-TBA) [4]: can interact
- change of UV/vis absorption band upon titration with ENOX-TBA ([4]; MeCN, c[19]=2.2×10^−5 M): decrease and red shift
